Assays:
human PIM2 kinase = target: T1, human PIM2 kinase (Homo sapiens, UniProt Q9P1W9); experiment: Human Pim2 kinase in vitro inhibition assay (Cerep, LANCE/FRET); type: biochemical
T1 construct: purchased Cerep (CRO that ran the assay) 2920 (745-P2); host or cells: insect cells
Text: (§1) Rucaparib, veliparib and olaparib were purchased from Selleckchem. Kinase in vitro assays were perfomed at Cerep (www.cerep.fr) by measuring the phosphorylation of appropriate peptide substrates by human recombinant enzymes and using FRET as a detection method (a detailed description of each kinase assay is available in online supplementary data).
Human Pim1 and Pim2 kinase in vitro inhibition assays
All details for the Pim1 and Pim2 in vitro assays can be consulted in the Cerep […]
http://www.cerep.fr/cerep/users/pages/catalog/Affiche_CondExp_Test.asp?test=2919, http://www.cerep.fr/cerep/users/pages/catalog/Affiche_CondExp_Test.asp?test=2920.
Evaluation of the effects of compounds on the activity of the human Pim1 and Pim2 kinases were quantified by measuring the phosphorylation of the substrate Ulight- […]
([…]) and ATP (30 µM for Pim1 and 3 µM for Pim2), and the mixture is incubated for 60 min at room temperature. […] After 60 more min, the fluorescence transfer is measured at λex=337 nm, λem=620 nm and λem=665 nm using a microplate reader (Envision, Perkin Elmer).
The enzyme activity is determined by dividing the signal measured at λem=665 nm by that measured at λem=620 nm (ratio). The results are expressed as a percent inhibition of the control enzyme activity. […]

STAT3 phosphorilation = tested on: STAT3 phosphorilation; set-up: method as in PMID 22678161; settings: at 5 µM; cited from earlier work
human CDK9 kinase = target: T2, human CDK9 kinase (Homo sapiens, UniProt P50750); experiment: Human CDK9 kinase in vitro inhibition assay (Cerep, LANCE); type: biochemical; settings: human recombinant enzyme, 10 µM ATP
T2 construct: purchased Cerep (CRO that ran the assay) 2912 (781-cdk9); host or cells: Sf9 cells
T2 sequence (P50750 whole entry): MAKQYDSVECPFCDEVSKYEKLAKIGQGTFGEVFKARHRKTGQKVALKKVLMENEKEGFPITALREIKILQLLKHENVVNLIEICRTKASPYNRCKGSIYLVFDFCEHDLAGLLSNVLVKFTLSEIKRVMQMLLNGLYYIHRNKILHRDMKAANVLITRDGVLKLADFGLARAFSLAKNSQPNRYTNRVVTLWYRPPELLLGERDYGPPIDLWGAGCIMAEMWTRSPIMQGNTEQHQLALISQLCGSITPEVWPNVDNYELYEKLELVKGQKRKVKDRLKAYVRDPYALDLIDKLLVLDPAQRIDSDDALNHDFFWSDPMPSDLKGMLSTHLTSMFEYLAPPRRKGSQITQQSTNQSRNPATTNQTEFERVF
T2 sequence (O60563 whole entry partner): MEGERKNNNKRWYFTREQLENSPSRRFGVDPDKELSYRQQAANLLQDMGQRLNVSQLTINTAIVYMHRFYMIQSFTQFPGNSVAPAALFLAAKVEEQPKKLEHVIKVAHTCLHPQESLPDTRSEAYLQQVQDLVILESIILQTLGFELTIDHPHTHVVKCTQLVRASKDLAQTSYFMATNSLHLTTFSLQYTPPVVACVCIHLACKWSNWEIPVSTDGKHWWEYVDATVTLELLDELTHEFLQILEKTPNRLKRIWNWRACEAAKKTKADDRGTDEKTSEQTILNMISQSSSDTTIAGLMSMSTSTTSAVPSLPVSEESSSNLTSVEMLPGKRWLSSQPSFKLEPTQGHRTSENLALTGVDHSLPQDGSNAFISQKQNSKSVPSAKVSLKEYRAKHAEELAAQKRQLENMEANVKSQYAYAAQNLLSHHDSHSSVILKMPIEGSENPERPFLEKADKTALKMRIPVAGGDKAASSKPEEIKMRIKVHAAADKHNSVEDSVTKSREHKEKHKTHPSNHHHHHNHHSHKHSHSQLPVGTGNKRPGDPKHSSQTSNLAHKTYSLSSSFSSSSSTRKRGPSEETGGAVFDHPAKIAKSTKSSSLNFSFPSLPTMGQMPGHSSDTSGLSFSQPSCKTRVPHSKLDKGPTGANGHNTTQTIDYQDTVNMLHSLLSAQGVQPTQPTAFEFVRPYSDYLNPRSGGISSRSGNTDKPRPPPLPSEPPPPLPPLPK
Text: as §1
Human CDK9 kinase in vitro inhibition assay
All details for the CDK9 in vitro assay can be consulted in the Cerep Catalogue available online under references 2912 (781-cdk9): http://www.cerep.fr/cerep/users/pages/catalog/Affiche_CondExp_Test.asp?test=2912 Evaluation of the effects of compounds on the activity of the human CDK9 quantified by measuring the phosphorylation of the substrate Ulight- […]
mixture is incubated for 90 min at room temperature. […] After 60 more min, the fluorescence transfer is measured at λex=337 nm, λem=620 nm and λem=665 nm using a microplate reader (Envision, Perkin Elmer). The enzyme activity is determined by dividing the signal measured at λem=665 nm by that measured at λem=620 nm (ratio). The results are expressed as a percent inhibition of the control enzyme activity. The standard inhibitory reference compound is staurosporine, which is tested in each experiment at several concentrations to obtain an inhibition curve from which its IC50 value is calculated. […]

[1] = 40 mg single daily dose; cited from earlier work

T1 sequence (Q9P1W9 whole entry): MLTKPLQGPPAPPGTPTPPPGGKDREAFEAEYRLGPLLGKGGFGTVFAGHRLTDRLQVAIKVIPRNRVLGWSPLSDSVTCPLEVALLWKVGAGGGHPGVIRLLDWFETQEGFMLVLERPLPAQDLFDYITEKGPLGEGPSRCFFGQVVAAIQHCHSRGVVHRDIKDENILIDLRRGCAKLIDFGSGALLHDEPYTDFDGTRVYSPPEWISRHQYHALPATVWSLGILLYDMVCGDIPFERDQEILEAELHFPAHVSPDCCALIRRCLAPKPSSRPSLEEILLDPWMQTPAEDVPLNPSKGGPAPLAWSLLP

For `CNCc1ccc(-c2[nH]c3cc(F)cc4c3c2CCNC4=O)cc1` [rucaparib], the IC50 (human PIM2 kinase) is given as 7.7 µM, the “effect on STAT3 phosphorilation” value (STAT3 phosphorilation) is given as “inhibit STAT3 phosphorilation” and the IC50 (human CDK9 kinase) is given as 2.7 µM. The “highest peak plasma concentration” value [1] was “around 2 µM”.
